Laboratory results: patent US11759462B2, “Spirocyclic compounds as tryptophan hydroxylase inhibitors” (priority 2013, dated 2023)
pIC50: −log10 of the molar value.

Biological target: T1, Recombinant human TPH1 (MBP tagged) (Homo sapiens, UniProt P17752)
T1 construct: cloning full length human TPH1 cDNA in to a bacterial pMAL-c5E expression vector; made in house; host or cells: E. coli BL21 (DE3)
T1 sequence (P17752 1-444): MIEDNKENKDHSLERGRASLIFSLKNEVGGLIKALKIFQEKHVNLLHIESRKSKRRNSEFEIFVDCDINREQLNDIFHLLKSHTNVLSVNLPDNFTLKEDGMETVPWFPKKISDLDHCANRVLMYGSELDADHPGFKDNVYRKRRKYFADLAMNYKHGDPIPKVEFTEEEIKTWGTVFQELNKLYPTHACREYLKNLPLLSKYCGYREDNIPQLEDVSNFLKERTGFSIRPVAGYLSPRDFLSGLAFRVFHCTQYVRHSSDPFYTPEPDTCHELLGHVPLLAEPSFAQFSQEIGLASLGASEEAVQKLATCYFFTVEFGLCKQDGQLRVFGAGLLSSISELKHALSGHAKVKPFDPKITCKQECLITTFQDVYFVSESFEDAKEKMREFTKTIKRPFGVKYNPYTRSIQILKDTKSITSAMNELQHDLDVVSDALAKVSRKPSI
Assay: TPH1 in vitro inhibition assay (kinetic fluorescence)
Format: biochemical
Conditions: read-out: TPH1 Range (TPH1 inhibition IC50)
How it was run: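 Final mix: 15 nM MBP-TPH1, 30 μM Trp, 36 μM 6-methyltetrahydropterin, 25 μM ferrous ammonium sulfate, 50 mM MES pH 7.1, 1% DMSO, room temperature.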

Row | Structure (SMILES) | pIC50
1 | Cc1ccn(-c2cc(-c3ccc(S(C)(=O)=O)cc3)ccc2[C@@H](Oc2cc(N3CCC4(CC3)CN[C@H](C(=O)O)C4)nc(N)n2)C(F)(F)F)n1 [Example 1cc, (S)-8-(2-amino-6-((R)-2,2,2-trifluoro-1-(3-(3-methyl-1H-pyrazol-1-yl)-4′-(methylsulfonyl)-[1,1′-biphenyl]-4-yl)ethoxy)pyrimidin-4-yl)-2,8-diazaspiro[4.5]decane-3-carboxylic acid] | > 7.30
2 | COc1ccc(-c2ccc([C@@H](Oc3cc(N4CCC5(CC4)CN[C@H](C(=O)O)C5)nc(N)n3)C(F)(F)F)c(-n3ccc(C)n3)c2)cc1F [Example 1ci, (S)-8-(2-amino-6-((R)-2,2,2-trifluoro-1-(3′-fluoro-4′-methoxy-3-(3-methyl-1H-pyrazol-1-yl)-[1,1′-biphenyl]-4-yl)ethoxy)pyrimidin-4-yl)-2,8-diazaspiro[4.5]decane-3-carboxylic acid] | > 7.30
3 | Cc1ccn(-c2cc(-c3ccc(C(=O)N4CCNCC4)cc3)ccc2[C@@H](Oc2cc(N3CCC4(CC3)CN[C@H](C(=O)O)C4)nc(N)n2)C(F)(F)F)n1 [Example 1cj, (S)-8-(2-amino-6-((R)-2,2,2-trifluoro-1-(3-(3-methyl-1H-pyrazol-1-yl)-4′-(piperazine-1-carbonyl)-[1,1′-biphenyl]-4-yl)ethoxy)pyrimidin-4-yl)-2,8-diazaspiro[4.5]decane-3-carboxylic acid] | > 7.30
4 | Cc1ccn(-c2cc(-c3ccc(C(=O)N(C)C)cc3)ccc2[C@@H](Oc2cc(N3CCC4(CC3)CN[C@H](C(=O)O)C4)nc(N)n2)C(F)(F)F)n1 [Example 1ck, (S)-8-(2-amino-6-((R)-1-(4′-(dimethylcarbamoyl)-3-(3-methyl-1H-pyrazol-l-y)-[1,1′-biphenyl]-4-yl)-2,2,2-trifluoroethoxy)pyrimidin-4-yl)-2,8-diazaspiro[4.5]decane-3-carboxylic acid] | > 7.30
5 | Cc1ccn(-c2cc(-c3ccc(OCC(C)C)cc3)ccc2[C@@H](Oc2cc(N3CCC4(CC3)CN[C@H](C(=O)O)C4)nc(N)n2)C(F)(F)F)n1 [Example 1cl, (S)-8-(2-amino-6-((R)-2,2,2-trifluoro-1-(4′-isobutoxy-3-(3-methyl-1H-pyrazol-1-yl)-[1,1′-biphenyl]-4-yl)ethoxy)pyrimidin-4-yl)-2,8-diazaspiro[4.5]decane-3-carboxylic acid] | > 7.30
6 | CCN(CC)C(=O)c1ccc(-c2ccc([C@@H](Oc3cc(N4CCC5(CC4)CN[C@H](C(=O)O)C5)nc(N)n3)C(F)(F)F)c(-n3ccc(C)n3)c2)cc1 [Example 1cm, (S)-8-(2-amino-6-((R)-1-(4′-(diethylcarbamoyl)-3-(3-methyl-1H-pyrazol-1-yl)-[l,l′-biphenyl]-4-yl)-2,2,2-trifluoroethoxy)pyrimidin-4-yl)-2,8-diazaspiro[4.5]decane-3-carboxylic acid] | > 7.30
7 | Cc1ccn(-c2cc(-c3ccc4c(c3)CCCO4)ccc2[C@@H](Oc2cc(N3CCC4(CC3)CN[C@H](C(=O)O)C4)nc(N)n2)C(F)(F)F)n1 [Example 1co, (S)-8-(2-amino-6-((R)-1-(4-(chroman-6-yl)-2-(3-methyl-1H-pyrazol-1-yl)phenyl)-2,2,2-trifluoroethoxy)pyrimidin-4-yl)-2,8-diazaspiro[4.5]decane-3-carboxylic acid] | > 7.30
8 | Cc1ccn(-c2cc(-c3ccc(C)c(CO)c3)ccc2[C@@H](Oc2cc(N3CCC4(CC3)CN[C@H](C(=O)O)C4)nc(N)n2)C(F)(F)F)n1 [Example 1cq, (S)-8-(2-amino-6-((R)-2,2,2-trifluoro-1-(3′-(hydroxymethyl)-4′-methyl-3-(3-methyl-1H-pyrazol-1-yl)-[1,1′-biphenyl]-4-yl)ethoxy)pyrimidin-4-yl)-2,8-diazaspiro[4.5]decane-3-carboxylic acid] | > 7.30
9 | CCOc1ccc(-c2ccc([C@@H](Oc3cc(N4CCC5(CC4)CN[C@H](C(=O)O)C5)nc(N)n3)C(F)(F)F)c(-n3ccc(C)n3)c2)cn1 [Example 1cs, (S)-8-(2-amino-6-((R)-1-(4-(6-ethoxypyridin-3-yl)-2-(3-methyl-1H-pyrazol-1-yl)phenyl)-2,2,2-trifluoroethoxy)pyrimidin-4-yl)-2,8-diazaspiro[4.5]decane-3-carboxylic acid] | > 7.30
10 | Cc1ccn(-c2cc(-c3cnoc3)ccc2[C@@H](Oc2cc(N3CCC4(CC3)CN[C@H](C(=O)O)C4)nc(N)n2)C(F)(F)F)n1 [Example 1i, (S)-8-(2-amino-6-((R)-2,2,2-trifluoro-1-(4-(isoxazol-4-yl)-2-(3-methyl-1H-pyrazol-1-yl)phenyl)ethoxy)pyrimidin-4-yl)-2,8-diazaspiro[4.5]decane-3-carboxylic acid] | 6.52 to 7.30
11 | Cc1ccn(-c2cc(C3=CCOCC3)ccc2[C@@H](Oc2cc(N3CCC4(CC3)CN[C@H](C(=O)O)C4)nc(N)n2)C(F)(F)F)n1 [Example 1j, (S)-8-(2-amino-6-((R)-1-(4-(3,6-dihydro-2H-pyran-4-yl)-2-(3-methyl-1H-pyrazol-1-yl)phenyl)-2,2,2-trifluoroethoxy)pyrimidin-4-yl)-2,8-diazaspiro[4.5]decane-3-carboxylic acid] | 6.52 to 7.30

Results, then the compound that gave them:

Row | pIC50 | Structure (SMILES)
12 | > 7.30 | CCCOc1ccc(-c2ccc([C@@H](Oc3cc(N4CCC5(CC4)CN[C@H](C(=O)O)C5)nc(N)n3)C(F)(F)F)c(-n3ccc(C)n3)c2)cc1 [Example 1cd, (S)-8-(2-amino-6-((R)-2,2,2-trifluoro-1-(3-(3-methyl-1H-pyrazol-1-yl)-4′-propoxy-[1,1′-biphenyl]-4-yl)ethoxy)pyrimidin-4-yl)-2,8-diazaspiro[4.5]decane-3-carboxylic acid]
13 | > 7.30 | Cc1ccn(-c2cc(-c3ccc(C(=O)NCCN4CCOCC4)cc3)ccc2[C@@H](Oc2cc(N3CCC4(CC3)CN[C@H](C(=O)O)C4)nc(N)n2)C(F)(F)F)n1 [Example 1ce, (S)-8-(2-amino-6-((R)-2,2,2-trifluoro-1-(3-(3-methyl-1H-pyrazol-1-yl)-4′-((2-morpholinoethyl)carbamoyl)-[1,1′-biphenyl]-4-yl)ethoxy)pyrimidin-4-yl)-2,8-diazaspiro[4.5]decane-3-carboxylic acid]
14 | 6.52 to 7.30 | Cc1ccn(-c2cc(-c3ccc(S(N)(=O)=O)cc3)ccc2[C@@H](Oc2cc(N3CCC4(CC3)CN[C@H](C(=O)O)C4)nc(N)n2)C(F)(F)F)n1 [Example 1cf, (S)-8-(2-amino-6-((R)-2,2,2-trifluoro-1-(3-(3-methyl-1H-pyrazol-1-yl)-4′-sulfamoyl-[1,1′-biphenyl]-4-yl)ethoxy)pyrimidin-4-yl)-2,8-diazaspiro[4.5]decane-3-carboxylic acid]
15 | > 7.30 | Cc1ccn(-c2cc(-c3ccc(C(N)=O)cc3)ccc2[C@@H](Oc2cc(N3CCC4(CC3)CN[C@H](C(=O)O)C4)nc(N)n2)C(F)(F)F)n1 [Example 1cg, (S)-8-(2-amino-6-((R)-1-(4′-carbamoyl-3-(3-methyl-1H-pyrazol-1-yl)-[1,1′-biphenyl]-4-yl)-2,2,2-trifluoroethoxy)pyrimidin-4-yl)-2,8-diazaspiro[4.5]decane-3-carboxylic acid]
16 | 6.52 to 7.30 | CNC(=O)c1ccc(-c2ccc([C@@H](Oc3cc(N4CCC5(CC4)CN[C@H](C(=O)O)C5)nc(N)n3)C(F)(F)F)c(-n3ccc(C)n3)c2)cc1 [Example 1ch, (S)-8-(2-amino-6-((R)-2,2,2-trifluoro-1-(3-(3-methyl-1H-pyrazol-1-yl)-4′-(methylcarbamoyl)-[1,1′-biphenyl]-4-yl)ethoxy)pyrimidin-4-yl)-2,8-diazaspiro[4.5]decane-3-carboxylic acid]
17 | > 7.30 | Cc1ccn(-c2cc(-c3ccc(OCC(C)(C)C)cc3)ccc2[C@@H](Oc2cc(N3CCC4(CC3)CN[C@H](C(=O)O)C4)nc(N)n2)C(F)(F)F)n1 [Example 1cn, (S)-8-(2-amino-6-((R)-2,2,2-trifluoro-1-(3-(3-methyl-1H-pyrazol-1-yl)-4′-(neopentyloxy)-[1,1′-biphenyl]-4-yl)ethoxy)pyrimidin-4-yl)-2,8-diazaspiro[4.5]decane-3-carboxylic acid]
18 | > 7.30 | Cc1ccn(-c2cc(-c3ccc(CO)c(C)c3)ccc2[C@@H](Oc2cc(N3CCC4(CC3)CN[C@H](C(=O)O)C4)nc(N)n2)C(F)(F)F)n1 [Example 1cr, (S)-8-(2-amino-6-((R)-2,2,2-trifluoro-1-(4′-(hydroxymethyl)-3′-methyl-3-(3-methyl-1H-pyrazol-1-yl)-[1,1′-biphenyl]-4-yl)ethoxy)pyrimidin-4-yl)-2,8-diazaspiro[4.5]decane-3-carboxylic acid]
19 | > 7.30 | Cc1ccn(-c2cc(-c3cccc(C(=O)O)c3)ccc2[C@@H](Oc2cc(N3CCC4(CC3)CN[C@H](C(=O)O)C4)nc(N)n2)C(F)(F)F)n1 [Example 1d, (S)-8-(2-amino-6-((R)-1-(3′-carboxy-3-(3-methyl-1H-pyrazol-1-yl)-[1,1′-biphenyl]-4-yl)-2,2,2-trifluoroethoxy)pyrimidin-4-yl)-2,8-diazaspiro[4.5]decane-3-carboxylic acid]
20 | 6.52 to 7.30 | Cc1ccn(-c2cc(C3=CCNCC3)ccc2[C@@H](Oc2cc(N3CCC4(CC3)CN[C@H](C(=O)O)C4)nc(N)n2)C(F)(F)F)n1 [Example 1f, (S)-8-(2-amino-6-((R)-2,2,2-trifluoro-1-(2-(3-methyl-1H-pyrazol-1-yl)-4-(1,2,3,6-tetrahydropyridin-4-yl)phenyl)ethoxy)pyrimidin-4-yl)-2,8-diazaspiro[4.5]decane-3-carboxylic acid]
